In US20080234233A1, “MEDICAMENT FOR TREATMENT OF NEURODEGENERATIVE DISEASES” (INSTITUTE OF MEDICINAL MOLECULAR DESIGN INC., priority 2002, published 2008):

Legend:
[1] = test system: rat hippocampus injected with human β amyloid; assay: Inhibitory activity against hypoplasia of memory formation (LTP), Alzheimer's model by injection of human β amyloid into the rat hippocampus; assay type: in vivo; details: 30 mg/kg intraperitoneally once a day, FIG. 1
From the text: Several places of rat hippocampus were infused with a 1:1 mixture of A β 1-40 and A β 1-43 which are human β amyloids (Aβ) for 7 continuous days by the microinjection method. On the 8th day, bipolar stimulating electrodes were fixed to the perforate pathway, and recording electrodes were fixed to the stratum moleculare of the hippocampus dentate gyrus under urethane anesthesia. A mono-synaptic reaction was searched by about 14 to 20 mV of test pulse from the stimulating electrode. Long-term potentiations (LTP: neurophysiological memory model phenomena) were compared by the test simulation and tetanic stimulation, and the existence of hypoplasia of memory formation was verified which is a problem in Alzheimer's disease. Three days before the start of the injection of β amyloid, saline for the control group and the test compound (30 mg/kg) for the dosing group were administered intraperitoneally once a day, and a comparison of LTP was carried out.

AP-1 activation = assay: Inhibition against AP-1 activation by TNF α stimulation, luciferase reporter assay in HeLa; assay type: cell-based, human; details: TNF-α 40 ng/ml, 4 hours
Description: Measurement of Inhibition Against AP-1 Activation by TNF α Stimulation
Using a transfection reagent(Effectene; QIAGEN), the human uterine cancer cell strain HeLa was transfected with a plasmid(pAP-1-Luc Reporter Plasmid: […]) integrated with an oligonucleotide having seven tandem copies of AP-1 binding sequences(TGACTAA) on an upstream region of firefly luciferase gene(Luc) according to the QIAGEN's protocol, and the cells were incubated for 6 to 24 hours. After addition of TNF-α (40 ng/ml) in the presence or absence of a test compound, the cells were incubated for 4 hours, and intracellular luciferase activity was measured by using PicaGene LT(TOYO INK MFG Co., Ltd.) and a chemical luminescence measurement apparatus([…]luor Plus; TECAN). The inhibitory ratio was measured as a ratio relative to the value of the luciferase activity in the absence of the test compound.

NF-κ B activation = assay: Inhibitory activity of NF-κB activation, luciferase reporter assay under TNF-α stimulation in HepG2; assay type: cell-based, human; details: HepG2, TNF-α 40 ng/ml, 4 hours
Procedure, shortened: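 HepG2 cells transiently transfected with luciferase reporter carrying five tandem NF-κB binding sites, then stimulated with TNF-α (40 ng/ml) ± compound for 4 hours. Luminescent luciferase activity measured; inhibition expressed relative to activity without compound.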

GSK3 β = assay: Amount of phosphorylated GSK3 β in MOLT-4F cells; assay type: cell-based, human; details: 2 μM, 24 hours
Description: When Compound No. 4 (2 μM) of the present invention was allowed to act on MOLT-4F cells(human leukemia cells) for 24 hours, the amount of phosphorylated GSK3 β, produced by phosphorylation of GSK3 β, was increased, and it is well presumed that similar phenomena may possibly occur in nerve cells. Since GSK3 β is inactivated by the phosphorylation, it is considered that the increase of the amount of the phosphorylated GSK3 β substantially means the inhibition of GSK3 β. […] (Refer to “The Biochemical Journal”, (England), 2001, Vol. 359, No. PT1, p. 1-16; “Current Opinion in Neurobiology”, (England), 2002, Vol. 12, No. 3, p. 275-278; “Trends in Molecular Medicine”, (England), 2002, Vol. 8, No. 3, p. 126-132; “Proceedings of The National Academy of Sciences of The United States of America”, (USA), 1996, Vol. 93, No. 7, p. 2719-2723; “The Journal of Biological Chemistry”, (USA), 2002, Vol. 277, No. 44, p. 42060-42065; “Proceedings of The National Academy of Sciences of The United States of America”, (USA), 2003, Vol. 100, No. 2, p. 721-726; “Annals of The New York Academy of Sciences”, (USA), 2000, Vol. 920, p. 107-114; “Nature”, (England), 2003, Vol. 423, No. 6938, p. 435-439; and “Neuron”, (USA), 2003, Vol. 38, No. 4, p. 555-565.)

In the case of `O=C(Nc1cc(C(F)(F)F)cc(C(F)(F)F)c1)c1cc(Cl)ccc1O` [compound 4, N-[3,5-bis(trifluoromethylphenyl)]-5-chloro-2-hydroxybenzamide], the “inhibitory activity against hypoplasia of memory (LTP)” value [1] is reported as “inhibitory activity against hypoplasia of memory”, the “Inhibitory rate against AP-1 activation(%)” value (AP-1 activation; Drug concentration at 1 μg/mL) is reported as 42.4% and the “Inhibitory rate against AP-1 activation(%)” value (AP-1 activation; Drug concentration at 10 μg/mL) is reported as 89.1%. The “Inhibitory rate against NF-κB activation (%)” value (NF-κ B activation; Drug concentration at 1 μg/mL) was 95.7%, the “Inhibitory rate against NF-κB activation (%)” value (NF-κ B activation; Drug concentration at 10 μg/mL) was 97.5% and the “amount of phosphorylated GSK3 β” value (GSK3 β) was “increased”.
